Reference: ChEMBL document CHEMBL4732067, “Synthesis and evaluation of new compounds bearing 3-(4-aminopiperidin-1-yl)methyl magnolol scaffold as anticancer agents for the treatment of non-small cell lung cancer via targeting autophagy” (Eur J Med Chem, 2021)

Assays:
Type in all cases: functional, cell-based
NCI-H1975 = assay: Antiproliferative activity against human NCI-H1975 cells assessed as reduction in cell viability after 72 hrs by MTT assay; conditions: NCI-H1975, 72 h
HCC827 = assay: Antiproliferative activity against human HCC827 cells assessed as reduction in cell viability after 72 hrs by MTT assay; conditions: HCC827, 72 h
NCI-H460 = assay: Antiproliferative activity against human NCI-H460 cells assessed as reduction in cell viability after 72 hrs by MTT assay; conditions: NCI-H460, 72 h

| SMILES | IC50 (NCI-H1975) [µM] | IC50 (HCC827) [µM] | IC50 (NCI-H460) [µM] |
| --- | --- | --- | --- |
| C=CCc1ccc(O)c(-c2cc(CC=C)cc(CN3CCC(NC(=O)[C@@H]4CCCN4)CC3)c2O)c1 | > 20 | > 20 | > 20 |
| C=CCc1ccc(OCCCCO)c(-c2cc(CC=C)cc(CN3CCC(N)CC3)c2O)c1 | 7.43 | 7.39 | 8.78 |
| C=CCc1ccc(OCCCCCOC(C)=O)c(-c2cc(CC=C)cc(CN3CCC(N)CC3)c2OCCCCCOC(C)=O)c1 | > 20 | > 20 | > 20 |
| C=CCc1ccc(O)c(-c2cc(CC=C)cc(CN3CCC(NC(=O)[C@H](N)CCSC)CC3)c2O)c1 | > 20 | > 20 | > 20 |
| C=CCc1ccc(OCCCC)c(-c2cc(CC=C)cc(CN3CCC(N)CC3)c2O)c1 | 10.4 | 9.45 | 8.76 |
| C=CCc1ccc(O)c(-c2cc(CC=C)cc(Cn3ccc(N)n3)c2O)c1 | > 20 | 16.2 | > 20 |
| C=CCc1ccc(OCC)c(-c2cc(CC=C)cc(CN3CCC(NC(=O)[C@@H](N)CO)CC3)c2O)c1 | 6.98 | 5.42 | 6.15 |
| C=CCc1ccc(OC(C)C)c(-c2cc(CC=C)cc(CN3CCC(NC(=O)[C@@H](N)CO)CC3)c2O)c1 | 5.71 | 2.85 | 2.87 |
| C=CCc1ccc(OCCCCCO)c(-c2cc(CC=C)cc(CN3CCC(N)CC3)c2O)c1 | 9.65 | 8.71 | 10.2 |
| C=CCc1ccc(O)c(-c2cc(CC=C)cc(CN3CCC(NC(=O)CCCN)CC3)c2O)c1 | > 20 | > 20 | > 20 |
| C=CCc1ccc(O)c(-c2cc(CC=C)cc(CN3CCC[C@@H]3CO)c2O)c1 | > 20 | > 20 | > 20 |
| C=CCc1ccc(O)c(-c2cc(CC=C)cc(CN3CCC(NC(=O)[C@@H](N)CCSC)CC3)c2O)c1 | > 20 | > 20 | > 20 |
| C=CCc1ccc(O)c(-c2cc(CC=C)cc(CCCN3CCC(N)CC3)c2O)c1 | > 20 | > 20 | > 20 |
| C=CCc1ccc(OCCO)c(-c2cc(CC=C)cc(CN3CCC(N)CC3)c2O)c1 | 6.84 | 4.34 | 6.16 |
| C=CCc1ccc(O)c(-c2cc(CC=C)cc(CN3CC[C@H](N)C3)c2O)c1 | > 20 | > 20 | > 20 |
| C=CCc1ccc(O)c(-c2cc(CC=C)cc(CN3CCC(NC(=O)[C@H]4CCCN4)CC3)c2O)c1 | > 20 | > 20 | > 20 |

Results, then the compound that gave them:

| IC50 (NCI-H1975) [µM] | IC50 (HCC827) [µM] | IC50 (NCI-H460) [µM] | SMILES |
| --- | --- | --- | --- |
| 6.85 | 5.89 | 6.43 | C=CCc1ccc(O)c(-c2cc(CC=C)cc(CN3CCC(NC(=O)[C@H](N)c4ccccc4)CC3)c2O)c1 |
| > 20 | > 20 | > 20 | C=CCc1ccc(O)c(-c2cc(CC=C)cc(CN3CCC(NC(=O)[C@@H](C)N)CC3)c2O)c1 |
| > 20 | > 20 | > 20 | C=CCc1ccc(O)c(-c2cc(CC=C)cc(CN3CCC(NC(=O)[C@@H](N)CC(C)C)CC3)c2O)c1 |
| 7.31 | 1.23 | 1.46 | C=CCc1ccc(OCC)c(-c2cc(CC=C)cc(CN3CCC(NC(=O)[C@H](N)c4ccccc4)CC3)c2O)c1 |
| 4.21 | 1.56 | 1.73 | C=CCc1ccc(OC(C)C)c(-c2cc(CC=C)cc(CN3CCC(NC(=O)[C@H](N)c4ccccc4)CC3)c2O)c1 |
| 11.3 | 10.9 | 12.5 | C=CCc1ccc(O)c(-c2cc(CC=C)cc(CN3CCC(NC(=O)[C@@H](N)Cc4ccccc4)CC3)c2O)c1 |
| > 20 | > 20 | 17.3 | C=CCc1ccc(O)c(-c2cc(CC=C)cc(CN3CCC(NC(=O)[C@H](C)N)CC3)c2O)c1 |
| 15.9 | 12.3 | 15.8 | C=CCc1ccc(O)c(-c2cc(CC=C)cc(CN3CCC(NC(=O)[C@@H](N)c4ccccc4)CC3)c2O)c1 |
